Source: ChEMBL document CHEMBL3244239, “Potential antitumor agents. Synthesis, reactivity, and cytoxicity of alpha-methylene carbonyl compounds” (1978)
≈ marks a conversion by molar mass, not a printed value.

system: KB; assay: Cytotoxicity against human KB cells; type: functional; conditions: read-out: ED50 (the source's name)

SMILES	EC50 [µg/mL]
C=C1CC(CCCC2CC(=C)C(=O)O2)OC1=O (stereo not drawn)	4 (≈ 16.9 µM)
C=C1C(=O)O[C@@H]2CCCC[C@@H]12 (relative stereo)	38 (≈ 250 µM)
C=C(C)C(=O)O[C@H]1CC2=C[C@@H](C[C@@]3(C)O[C@@H]3[C@H]3OC(=O)C(=C)[C@@H]31)OC2=O [ELEPHANTOPIN]	1 (≈ 2.77 µM)
O=C1OCC/C1=C\CCC/C=C1\CCOC1=O	> 100
O=C1OCC/C1=C\OCCCO/C=C1\CCOC1=O	> 100
C=C1CCOC1=O [TULIPALINE A]	16 (≈ 163 µM)
O=C1OCC/C1=C\OC(=O)c1ccccc1	100 (≈ 458 µM)
C=C1C(=O)O[C@@H]2[C@@H]3[C@H](C[C@H]12)[C@@H]1C=C[C@@H]3C1	1 (≈ 4.94 µM)
